# Laboratory results taken from article PMC3961306, “Comparison of the Cancer Gene Targeting and Biochemical Selectivities of All Targeted Kinase Inhibitors Approved for Clinical Use” (PLoS ONE, 2014).
# pIC50: −log10 of the molar value. Read-outs that look alike come from different tables or passages of the source.
# Columns and labels:
# [1] = system: forty-four human cancer cell lines; test: Cell proliferation assay (ATPlite, 72 hours) in the 44 cell line Oncolines panel; assay type: cell-based; settings: Homo sapiens
# [2] = molecular target: panel of more than 300 wild-type and mutant kinases (313 kinase panel) (Homo sapiens, UniProt P04049); test: Kinase profiling in a biochemical assay panel (mobility shift assays and ELISA), %-inhibition at 1 μM; selectivity entropy; settings: kinase RAF1; 1 μM
# [3] = molecular target: panel of more than 300 wild-type and mutant kinases (313 kinase panel) (Homo sapiens, UniProt P10721, T670I); test: as above; settings: kinase KIT(T670I); compound at 1 μM
# [4] = molecular target: panel of more than 300 wild-type and mutant kinases (313 kinase panel) (Homo sapiens, UniProt P22612); test: as above; settings: kinase PKACγ; 1 μM
# [5] = molecular target: panel of more than 300 wild-type and mutant kinases (313 kinase panel) (Homo sapiens, UniProt Q04912); test: as above; settings: kinase RON; 1 μM
# [6] = molecular target: panel of more than 300 wild-type and mutant kinases (313 kinase panel) (Homo sapiens, UniProt Q8N4C8); test: as above; settings: kinase MINK; 1 μM
# [7] = molecular target: panel of more than 300 wild-type and mutant kinases (313 kinase panel) (Homo sapiens, UniProt Q9HC98); test: as above; settings: kinase NEK6; 1 μM
# [8] = molecular target: T1, panel of more than 300 wild-type and mutant kinases (313 kinase panel) (Homo sapiens, UniProt Q9UL54); test: as above; settings: kinase TAOK2; 1 μM
# T1 sequence (Q9UL54 1-1235): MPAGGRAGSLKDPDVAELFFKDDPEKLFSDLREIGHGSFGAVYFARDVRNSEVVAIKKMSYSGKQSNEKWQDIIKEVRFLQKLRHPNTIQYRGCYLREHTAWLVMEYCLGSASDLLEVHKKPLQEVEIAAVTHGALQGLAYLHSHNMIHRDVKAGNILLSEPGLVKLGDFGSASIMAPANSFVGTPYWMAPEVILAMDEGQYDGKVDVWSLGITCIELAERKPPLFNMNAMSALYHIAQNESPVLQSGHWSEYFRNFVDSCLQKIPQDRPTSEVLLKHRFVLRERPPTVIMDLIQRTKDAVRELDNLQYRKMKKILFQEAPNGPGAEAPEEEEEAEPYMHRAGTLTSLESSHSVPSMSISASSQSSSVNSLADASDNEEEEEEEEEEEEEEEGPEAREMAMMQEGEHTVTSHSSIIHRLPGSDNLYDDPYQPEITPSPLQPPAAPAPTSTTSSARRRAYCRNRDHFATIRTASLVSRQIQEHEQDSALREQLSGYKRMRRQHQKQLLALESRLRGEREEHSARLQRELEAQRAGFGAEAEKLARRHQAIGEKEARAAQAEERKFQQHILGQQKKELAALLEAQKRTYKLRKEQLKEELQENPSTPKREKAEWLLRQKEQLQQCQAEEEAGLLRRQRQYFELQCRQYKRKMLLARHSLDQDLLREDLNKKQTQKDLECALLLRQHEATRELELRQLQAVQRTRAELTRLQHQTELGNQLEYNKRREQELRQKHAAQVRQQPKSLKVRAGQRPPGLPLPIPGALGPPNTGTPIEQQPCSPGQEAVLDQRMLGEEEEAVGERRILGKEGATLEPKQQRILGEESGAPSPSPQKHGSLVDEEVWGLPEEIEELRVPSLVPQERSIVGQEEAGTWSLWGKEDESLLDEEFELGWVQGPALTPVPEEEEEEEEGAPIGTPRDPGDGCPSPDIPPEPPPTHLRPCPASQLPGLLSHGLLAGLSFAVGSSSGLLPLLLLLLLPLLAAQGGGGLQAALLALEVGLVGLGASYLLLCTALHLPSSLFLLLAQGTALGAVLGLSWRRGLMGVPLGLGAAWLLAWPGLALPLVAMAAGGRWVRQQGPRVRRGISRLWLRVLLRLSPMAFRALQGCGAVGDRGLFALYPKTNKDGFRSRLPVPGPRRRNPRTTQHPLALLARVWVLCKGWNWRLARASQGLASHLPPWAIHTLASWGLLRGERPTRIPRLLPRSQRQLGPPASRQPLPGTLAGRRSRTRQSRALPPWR
# panel of more than 300 wild-type and mutant kinases (313 kinase panel) (Homo sapiens, UniProt P10721, T670I), sequence (P10721 26-976 T670I): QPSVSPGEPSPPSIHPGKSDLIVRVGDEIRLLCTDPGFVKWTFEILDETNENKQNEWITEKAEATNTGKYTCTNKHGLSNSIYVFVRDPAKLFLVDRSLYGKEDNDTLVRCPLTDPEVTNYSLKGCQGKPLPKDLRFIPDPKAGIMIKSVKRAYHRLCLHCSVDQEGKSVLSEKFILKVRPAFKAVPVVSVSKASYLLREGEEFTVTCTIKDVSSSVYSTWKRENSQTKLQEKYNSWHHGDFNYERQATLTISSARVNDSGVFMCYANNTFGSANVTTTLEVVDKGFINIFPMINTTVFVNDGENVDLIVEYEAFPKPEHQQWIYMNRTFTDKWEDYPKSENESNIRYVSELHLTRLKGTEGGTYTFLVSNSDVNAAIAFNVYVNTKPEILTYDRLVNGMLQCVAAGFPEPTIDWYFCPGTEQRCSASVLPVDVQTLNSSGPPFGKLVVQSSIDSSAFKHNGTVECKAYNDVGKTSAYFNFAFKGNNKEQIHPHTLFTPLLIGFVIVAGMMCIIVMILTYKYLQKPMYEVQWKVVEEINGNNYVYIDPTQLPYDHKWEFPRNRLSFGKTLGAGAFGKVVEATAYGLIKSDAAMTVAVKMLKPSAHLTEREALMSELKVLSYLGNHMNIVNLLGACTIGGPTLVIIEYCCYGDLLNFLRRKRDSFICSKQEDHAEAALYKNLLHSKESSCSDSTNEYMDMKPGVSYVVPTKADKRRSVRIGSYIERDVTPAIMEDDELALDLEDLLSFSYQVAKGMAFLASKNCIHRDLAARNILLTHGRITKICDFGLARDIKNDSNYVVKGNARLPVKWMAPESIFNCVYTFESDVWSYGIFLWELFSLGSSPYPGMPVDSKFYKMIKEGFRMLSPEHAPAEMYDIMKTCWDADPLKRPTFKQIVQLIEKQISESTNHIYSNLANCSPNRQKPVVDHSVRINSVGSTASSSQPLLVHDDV
# panel of more than 300 wild-type and mutant kinases (313 kinase panel) (Homo sapiens, UniProt Q8N4C8), sequence (Q8N4C8 whole entry, change not shown): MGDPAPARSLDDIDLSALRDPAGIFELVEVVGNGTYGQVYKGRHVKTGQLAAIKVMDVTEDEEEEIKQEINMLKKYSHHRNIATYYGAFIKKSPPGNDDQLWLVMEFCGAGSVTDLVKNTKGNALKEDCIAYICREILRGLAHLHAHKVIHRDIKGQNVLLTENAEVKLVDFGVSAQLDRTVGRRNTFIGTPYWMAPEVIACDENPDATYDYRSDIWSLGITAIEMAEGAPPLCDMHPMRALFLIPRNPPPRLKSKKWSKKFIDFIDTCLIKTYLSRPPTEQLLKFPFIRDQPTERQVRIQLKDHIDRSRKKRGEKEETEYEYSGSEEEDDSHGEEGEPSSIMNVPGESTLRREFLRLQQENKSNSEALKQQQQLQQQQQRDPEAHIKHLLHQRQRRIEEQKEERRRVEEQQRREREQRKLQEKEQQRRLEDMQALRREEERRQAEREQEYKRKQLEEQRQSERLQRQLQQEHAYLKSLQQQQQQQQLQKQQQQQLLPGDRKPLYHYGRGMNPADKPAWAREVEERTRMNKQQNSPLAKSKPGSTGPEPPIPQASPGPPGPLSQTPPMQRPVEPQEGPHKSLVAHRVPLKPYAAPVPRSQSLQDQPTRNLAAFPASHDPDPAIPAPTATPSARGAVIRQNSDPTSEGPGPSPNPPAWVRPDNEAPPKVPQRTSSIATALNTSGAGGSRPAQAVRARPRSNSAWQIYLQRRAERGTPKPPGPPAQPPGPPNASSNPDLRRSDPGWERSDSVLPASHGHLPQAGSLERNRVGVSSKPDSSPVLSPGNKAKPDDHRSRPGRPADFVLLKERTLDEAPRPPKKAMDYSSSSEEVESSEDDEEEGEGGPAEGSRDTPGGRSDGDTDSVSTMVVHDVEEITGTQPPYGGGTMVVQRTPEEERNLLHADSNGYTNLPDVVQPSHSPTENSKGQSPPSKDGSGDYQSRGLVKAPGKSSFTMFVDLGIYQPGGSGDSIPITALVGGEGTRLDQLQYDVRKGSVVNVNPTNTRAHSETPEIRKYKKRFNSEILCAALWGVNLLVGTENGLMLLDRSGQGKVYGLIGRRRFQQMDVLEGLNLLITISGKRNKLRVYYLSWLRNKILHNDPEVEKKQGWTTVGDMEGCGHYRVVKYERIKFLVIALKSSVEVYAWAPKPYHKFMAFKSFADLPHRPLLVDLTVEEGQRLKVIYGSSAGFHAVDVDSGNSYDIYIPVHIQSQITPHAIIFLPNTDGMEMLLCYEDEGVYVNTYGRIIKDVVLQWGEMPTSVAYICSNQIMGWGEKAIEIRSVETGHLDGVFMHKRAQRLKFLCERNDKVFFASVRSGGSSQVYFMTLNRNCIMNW
# panel of more than 300 wild-type and mutant kinases (313 kinase panel) (Homo sapiens, UniProt P04049), sequence (P04049 whole entry, stated change not applied): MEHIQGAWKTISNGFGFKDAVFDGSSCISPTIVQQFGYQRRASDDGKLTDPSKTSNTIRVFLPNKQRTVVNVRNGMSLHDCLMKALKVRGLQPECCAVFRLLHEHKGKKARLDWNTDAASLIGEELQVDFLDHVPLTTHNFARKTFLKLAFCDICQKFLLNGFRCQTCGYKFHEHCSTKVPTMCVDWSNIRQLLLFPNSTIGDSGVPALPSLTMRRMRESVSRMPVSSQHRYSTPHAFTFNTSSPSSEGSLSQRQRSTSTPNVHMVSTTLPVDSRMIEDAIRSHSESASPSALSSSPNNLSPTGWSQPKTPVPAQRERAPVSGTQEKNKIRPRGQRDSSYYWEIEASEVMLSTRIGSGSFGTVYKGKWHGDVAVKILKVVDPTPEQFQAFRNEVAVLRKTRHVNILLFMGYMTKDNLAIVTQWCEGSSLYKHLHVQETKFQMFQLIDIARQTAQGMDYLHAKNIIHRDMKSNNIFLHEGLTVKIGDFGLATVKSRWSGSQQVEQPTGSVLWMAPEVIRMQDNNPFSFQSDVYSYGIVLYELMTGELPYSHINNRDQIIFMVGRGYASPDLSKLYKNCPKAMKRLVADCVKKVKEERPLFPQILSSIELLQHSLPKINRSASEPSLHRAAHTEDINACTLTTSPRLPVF
smiles,measurement,setting,value
CO[C@H]1C[C@@H]2CC[C@@H](C)[C@@](O)(O2)C(=O)C(=O)N2CCCC[C@H]2C(=O)O[C@H]([C@H](C)C[C@@H]2CC[C@@H](OCCO)[C@H](OC)C2)CC(=O)[C@H](C)/C=C(\C)[C@@H](O)[C@@H](OC)C(=O)[C@H](C)C[C@H](C)/C=C/C=C/C=C/1C [everolimus],pIC50,"[1]; 769-P, cell line 769-P, read-out: cell panel IC50, 769-P",6.43
same,pIC50,"[1]; 786-0, cell line 786-0, read-out: cell panel IC50, 786-0",6.69
same,pIC50,"[1]; A 172, read-out: cell panel IC50, A-172, cell line A-172",7.30
same,pIC50,"[1]; A204, cell line A-204, read-out: cell panel IC50, A-204",4.92
same,pIC50,"[1]; A498, read-out: cell panel IC50, A-498, cell line A-498",5.91
same,pIC50,"[1]; A549, read-out: cell panel IC50, A-549, cell line A-549",6.14
same,pIC50,"[1]; A-375, cell line A375, read-out: cell panel IC50, A375",4.73
same,pIC50,"[1]; A-427, read-out: cell panel IC50, A-427, cell line A-427",7.03
same,pIC50,"[1]; ACHN, cell line ACHN, read-out: cell panel IC50, ACHN",4.82
same,pIC50,"[1]; AN3-CA, cell line AN3 CA, read-out: cell panel IC50, AN3 CA",6.98
same,pIC50,"[1]; AU565, read-out: cell panel IC50, AU-565, cell line AU-565",4.56
same,pIC50,"[1]; BT-20, cell line BT-20, read-out: cell panel IC50, BT-20",8.15
same,pIC50,"[1]; BT-549, read-out: cell panel IC50, BT-549, cell line BT-549",7.24
same,pIC50,"[1]; BXPC-3, cell line BxPC-3, read-out: cell panel IC50, BxPC-3",< 4.50
same,pIC50,"[1]; C-33-A, cell line C-33 A, read-out: cell panel IC50, C-33 A",7.70
same,pIC50,"[1]; CAL-27, cell line CAL 27, read-out: cell panel IC50, CAL 27",5.57
same,pIC50,"[1]; CCRF-CEM, cell line CCRF-CEM, read-out: cell panel IC50, CCRF-CEM",5.85
same,pIC50,"[1]; DLD-1, cell line DLD-1, read-out: cell panel IC50, DLD-1",6.31
same,pIC50,"[1]; FaDu, cell line FaDu, read-out: cell panel IC50, FaDu",5.93
same,pIC50,"[1]; HCT-15, cell line HCT-15, read-out: cell panel IC50, HCT-15",6.53
same,pIC50,"[1]; HCT-116, read-out: cell panel IC50, HCT-116, cell line HCT-116",4.72
same,pIC50,"[1]; Hs-578T, cell line Hs 578T, read-out: cell panel IC50, Hs 578T",7.31
same,pIC50,"[1]; Jurkat E6.1, cell line Jurkat E6.1, read-out: cell panel IC50, Jurkat E6.1",7.20
same,pIC50,"[1]; K562, read-out: cell panel IC50, K-562, cell line K-562",< 4.50
same,pIC50,"[1]; LS174T, read-out: cell panel IC50, LS 174T, cell line LS 174T",< 4.50
same,pIC50,"[1]; LoVo, cell line LoVo, read-out: cell panel IC50, LoVo",< 4.50
same,pIC50,"[1]; MG-63, cell line MG-63, read-out: cell panel IC50, MG-63",6.34
same,pIC50,"[1]; MOLT-4, cell line MOLT-4, read-out: cell panel IC50, MOLT-4",6.82
same,pIC50,"[1]; MeWo, cell line MeWo, read-out: cell panel IC50, MeWo",< 4.50
same,pIC50,"[1]; NCI-H82, cell line NCI-H82, read-out: cell panel IC50, NCI-H82",5.32
same,pIC50,"[1]; NCI-H460, cell line NCI-H460, read-out: cell panel IC50, NCI-H460",5.40
same,pIC50,"[1]; OVCAR-3, cell line OVCAR-3, read-out: cell panel IC50, OVCAR-3",6.33
same,pIC50,"[1]; RPMI-7951, cell line RPMI-7951, read-out: cell panel IC50, RPMI-7951",8.92
same,pIC50,"[1]; SHP77, cell line SHP-77, read-out: cell panel IC50, SHP-77",< 4.50
same,pIC50,"[1]; SK-N-AS, cell line SK-N-AS, read-out: cell panel IC50, SK-N-AS",6.52
same,pIC50,"[1]; SW48, cell line SW48, read-out: cell panel IC50, SW48",4.73
same,pIC50,"[1]; SW480, cell line SW480, read-out: cell panel IC50, SW480",4.83
same,pIC50,"[1]; SW-620, cell line SW620, read-out: cell panel IC50, SW620",4.78
same,pIC50,"[1]; U2OS, cell line U-2 OS, read-out: cell panel IC50, U-2 OS",5.37
same,pIC50,"[1]; cell line J82, read-out: cell panel IC50, J82",6.36
same,pIC50,"[1]; cell line PA-1, read-out: cell panel IC50, PA-1",5.48
same,pIC50,"[1]; cell line SJCRH30, read-out: cell panel IC50, SJCRH30",4.55
same,pIC50,"[1]; cell line SR, read-out: cell panel IC50, SR",6.96
same,pIC50,"[1]; U-87 MG cell line, ATPlite, 72 hours, read-out: IC50 in cell proliferation assay (table S5 cellpanel data)",6.19
same,%-inhibition of RAF1,[2],14%
same,%-inhibition of KIT(T670I),[3],-2.56%
same,%-inhibition of PKACγ,[4],-7.41%
same,%-inhibition of RON,[5],-6.45%
same,%-inhibition of MINK,[6],-7.49%
same,%-inhibition of NEK6,[7],-6.38%
same,%-inhibition of TAOK2,[8],-0.8%
